Reference: ChEMBL document CHEMBL2375306, “Antimicrobial peptides containing unnatural amino acid exhibit potent bactericidal activity against ESKAPE pathogens” (Bioorg Med Chem, 2013)
In brackets after ≈: the same amount, converted by molar mass. Square brackets hold non-standard residues; d marks the D form. Peptide text beside a SMILES is read from it. * marks the point of attachment. ξ: configuration not given here. Pro(3ξ,4ξ-(CH2)4) = O=C(O)[C@H]1NCC2CCCCC21; Phe(4-F) = N[C@@H](Cc1ccc(F)cc1)C(=O)O; Tic = O=C(O)[C@@H]1Cc2ccccc2CN1; X5 = CC(=O)NC(=O)[C@H](CCCCN)N*; X1 = CC(=O)NC(=O)[C@H](CN)N*; Orn = NCCC[C@H](N)C(=O)O; Dab = NCC[C@H](N)C(=O)O; Dap = NC[C@H](N)C(=O)O; GABA = NCCCC(=O)O; βAla = NCCC(=O)O

Experiments:
Type in all cases: functional
Enterococcus faecium = assay: Antibacterial activity against Enterococcus faecium MMC4 after 24 hrs by broth microdilution method; conditions: MMC4, 24 h
Klebsiella aerogenes = assay: Antibacterial activity against Enterobacter aerogenes after 24 hrs by broth microdilution method
Pseudomonas aeruginosa = assay: Antibacterial activity against Pseudomonas aeruginosa PAO1 after 24 hrs by broth microdilution method; conditions: PAO1, 24 h
Klebsiella pneumoniae = assay: Antibacterial activity against Klebsiella pneumoniae BAMS clinical isolate 07-18 after 24 hrs by broth microdilution method; conditions: BAMS clinical isolate 07-18, 24 h
Acinetobacter baumannii = assay: Antibacterial activity against Acinetobacter baumannii WRAIR clinical isolate 13 after 24 hrs by broth microdilution method; conditions: WRAIR clinical isolate 13, 24 h
Staphylococcus aureus = assay: Antibacterial activity against methicillin-sensitive Staphylococcus aureus UAMS-1 after 24 hrs by broth microdilution method; conditions: UAMS-1, 24 h

Compound | MBC (Enterococcus faecium) [µg/mL] | MIC (Enterococcus faecium) [µg/mL] | MBC (Klebsiella aerogenes) [µg/mL] | MIC (Klebsiella aerogenes) [µg/mL] | MBC (Pseudomonas aeruginosa) [µg/mL] | MIC (Pseudomonas aeruginosa) [µg/mL] | MBC (Klebsiella pneumoniae) [µg/mL] | MIC (Klebsiella pneumoniae) [µg/mL] | MBC (Acinetobacter baumannii) [µg/mL] | MIC (Acinetobacter baumannii) [µg/mL] | MBC (Staphylococcus aureus) [µg/mL] | MIC (Staphylococcus aureus) [µg/mL]
CC(C)C[C@H](NC(=O)[C@@H](N)CCN)C(=O)N1Cc2ccccc2C[C@H]1C(=O)N1CC2CCCCC2[C@H]1C(=O)N[C@@H](CCN)C(=O)N1Cc2ccccc2C[C@H]1C(=O)N1CC2CCCCC2[C@H]1C(=O)N[C@@H](Cc1ccccc1)C(=O)N1Cc2ccccc2C[C@H]1C(=O)N1CC2CCCCC2[C@H]1C(=O)N[C@@H](CCN)C(=O)N1Cc2ccccc2C[C@H]1C(=O)N1CC2CCCCC2[C@H]1C(=O)N[C@@H](Cc1ccccc1)C(=O)N1Cc2ccccc2C[C@H]1C(=O)N1CC2CCCCC2[C@H]1C(=O)N[C@@H](CCN)C(=O)N1Cc2ccccc2C[C@H]1C(=O)N1CC2CCCCC2[C@H]1C(=O)N[C@@H](CCN)C(=O)N[C@@H](CCN)C(=O)N[C@@H](CCN)C(=O)N[C@@H](CCN)C(N)=O (stereo not given in full) (H-[Dab]L[Tic][Pro(3ξ,4ξ-(CH2)4)][Dab][Tic][Pro(3ξ,4ξ-(CH2)4)]F[Tic][Pro(3ξ,4ξ-(CH2)4)][Dab][Tic][Pro(3ξ,4ξ-(CH2)4)]F[Tic][Pro(3ξ,4ξ-(CH2)4)][Dab][Tic][Pro(3ξ,4ξ-(CH2)4)][Dab][Dab][Dab][Dab]-NH2) | 25 (≈ 8.1 µM) | 12.5 (≈ 4.05 µM) | 50 (≈ 16.2 µM) | 50 (≈ 16.2 µM) | 100 (≈ 32.4 µM) | 50 (≈ 16.2 µM) | 100 (≈ 32.4 µM) | 50 (≈ 16.2 µM) | 100 (≈ 32.4 µM) | 25 (≈ 8.1 µM) | 25 (≈ 8.1 µM) | 25 (≈ 8.1 µM)
CC(C)C[C@H](NC(=O)[C@@H](N)CCCN)C(=O)N1Cc2ccccc2C[C@H]1C(=O)N1CC2CCCCC2[C@H]1C(=O)N[C@@H](CCCN)C(=O)N1Cc2ccccc2C[C@H]1C(=O)N1CC2CCCCC2[C@H]1C(=O)N[C@@H](Cc1ccccc1)C(=O)N1Cc2ccccc2C[C@H]1C(=O)N1CC2CCCCC2[C@H]1C(=O)N[C@@H](CCCN)C(=O)N1Cc2ccccc2C[C@H]1C(=O)N1CC2CCCCC2[C@H]1C(=O)N[C@@H](Cc1ccccc1)C(=O)N1Cc2ccccc2C[C@H]1C(=O)N1CC2CCCCC2[C@H]1C(=O)N[C@@H](CCCN)C(=O)N1Cc2ccccc2C[C@H]1C(=O)N1CC2CCCCC2[C@H]1C(=O)N[C@@H](CCCN)C(=O)N[C@@H](CCCN)C(=O)N[C@@H](CCCN)C(=O)N[C@@H](CCCN)C(N)=O (stereo not given in full) (H-[Orn]L[Tic][Pro(3ξ,4ξ-(CH2)4)][Orn][Tic][Pro(3ξ,4ξ-(CH2)4)]F[Tic][Pro(3ξ,4ξ-(CH2)4)][Orn][Tic][Pro(3ξ,4ξ-(CH2)4)]F[Tic][Pro(3ξ,4ξ-(CH2)4)][Orn][Tic][Pro(3ξ,4ξ-(CH2)4)][Orn][Orn][Orn][Orn]-NH2) | 50 (≈ 15.6 µM) | 12.5 (≈ 3.91 µM) | > 100 | 100 (≈ 31.2 µM) | > 100 | 100 (≈ 31.2 µM) | > 100 | 100 (≈ 31.2 µM) | 100 (≈ 31.2 µM) | 12.5 (≈ 3.91 µM) | 100 (≈ 31.2 µM) | 50 (≈ 15.6 µM)
CC(=O)NCCC(=O)N[C@@H](Cc1ccccc1)C(=O)N1Cc2ccccc2C[C@H]1C(=O)N1CC2CCCCC2[C@H]1C(=O)NCCC(=O)N[C@@H](CCCCN)C(=O)N1Cc2ccccc2C[C@H]1C(=O)N1CC2CCCCC2[C@H]1C(=O)NCCC(=O)N[C@@H](Cc1ccccc1)C(=O)N1Cc2ccccc2C[C@H]1C(=O)N1CC2CCCCC2[C@H]1C(=O)NCCC(=O)N[C@@H](CCCCN)C(=O)N1Cc2ccccc2C[C@H]1C(=O)N[C@@H](CCCCN)C(=O)N[C@@H](CCCCN)C(=O)N[C@@H](CCCCN)C(=O)N[C@@H](CCCCN)C(=O)NC(C)=O (stereo not given in full) (Ac-[βAla]F[Tic][Pro(3ξ,4ξ-(CH2)4)][βAla]K[Tic][Pro(3ξ,4ξ-(CH2)4)][βAla]F[Tic][Pro(3ξ,4ξ-(CH2)4)][βAla]K[Tic]KKK-X5) | 50 (≈ 19.7 µM) | 25 (≈ 9.85 µM) | > 100 | > 100 | > 100 | > 100 | > 100 | > 100 | 25 (≈ 9.85 µM) | 12.5 (≈ 4.92 µM) | > 100 | > 100
CC(=O)NCC(=O)N[C@@H](Cc1ccc(F)cc1)C(=O)N1Cc2ccccc2C[C@H]1C(=O)N1CC2CCCCC2[C@H]1C(=O)NCC(=O)N[C@@H](CCCCN)C(=O)N1Cc2ccccc2C[C@H]1C(=O)N1CC2CCCCC2[C@H]1C(=O)NCC(=O)N[C@@H](Cc1ccc(F)cc1)C(=O)N1Cc2ccccc2C[C@H]1C(=O)N1CC2CCCCC2[C@H]1C(=O)NCC(=O)N[C@@H](CCCCN)C(=O)N1Cc2ccccc2C[C@H]1C(=O)N[C@@H](CCCCN)C(=O)N[C@@H](CCCCN)C(=O)N[C@@H](CCCCN)C(=O)N[C@@H](CCCCN)C(N)=O (stereo not given in full) (Ac-G[Phe(4-F)][Tic][Pro(3ξ,4ξ-(CH2)4)]GK[Tic][Pro(3ξ,4ξ-(CH2)4)]G[Phe(4-F)][Tic][Pro(3ξ,4ξ-(CH2)4)]GK[Tic]KKKK-NH2) | 50 (≈ 20.2 µM) | 25 (≈ 10.1 µM) | > 100 | > 100 | > 100 | > 100 | 100 (≈ 40.4 µM) | 100 (≈ 40.4 µM) | 25 (≈ 10.1 µM) | 12.5 (≈ 5.05 µM) | 100 (≈ 40.4 µM) | 100 (≈ 40.4 µM)
CC(=O)NCC(=O)N[C@@H](Cc1ccccc1)C(=O)N1Cc2ccccc2C[C@H]1C(=O)N1CC2CCCCC2[C@H]1C(=O)NCC(=O)N[C@@H](CCCCN)C(=O)N1Cc2ccccc2C[C@H]1C(=O)N1CC2CCCCC2[C@H]1C(=O)NCC(=O)N[C@@H](Cc1ccccc1)C(=O)N1Cc2ccccc2C[C@H]1C(=O)N1CC2CCCCC2[C@H]1C(=O)NCC(=O)N[C@@H](CCCCN)C(=O)N1Cc2ccccc2C[C@H]1C(=O)N[C@@H](CCCCN)C(=O)N[C@@H](CCCCN)C(=O)N[C@@H](CCCCN)C(=O)N[C@@H](CCCCN)C(N)=O (stereo not given in full) (Ac-GF[Tic][Pro(3ξ,4ξ-(CH2)4)]GK[Tic][Pro(3ξ,4ξ-(CH2)4)]GF[Tic][Pro(3ξ,4ξ-(CH2)4)]GK[Tic]KKKK-NH2) | 50 (≈ 20.5 µM) | 25 (≈ 10.2 µM) | 100 (≈ 41 µM) | 100 (≈ 41 µM) | 100 (≈ 41 µM) | 100 (≈ 41 µM) | 100 (≈ 41 µM) | 100 (≈ 41 µM) | 25 (≈ 10.2 µM) | 6.25 (≈ 2.56 µM) | > 100 | > 100
CC(C)C[C@H](NC(=O)[C@@H](N)CCCCN)C(=O)N1Cc2ccccc2C[C@H]1C(=O)N1CC2CCCCC2[C@H]1C(=O)N[C@@H](CCCCN)C(=O)N1Cc2ccccc2C[C@H]1C(=O)N1CC2CCCCC2[C@H]1C(=O)N[C@@H](Cc1ccccc1)C(=O)N1Cc2ccccc2C[C@H]1C(=O)N1CC2CCCCC2[C@H]1C(=O)N[C@@H](CCCCN)C(=O)N1Cc2ccccc2C[C@H]1C(=O)N1CC2CCCCC2[C@H]1C(=O)N[C@@H](Cc1ccccc1)C(=O)N1Cc2ccccc2C[C@H]1C(=O)N1CC2CCCCC2[C@H]1C(=O)N[C@@H](CCCCN)C(=O)N1Cc2ccccc2C[C@H]1C(=O)N1CC2CCCCC2[C@H]1C(=O)N[C@@H](CCCCN)C(=O)N[C@@H](CCCNC(=N)N)C(N)=O (stereo not given in full) (H-KL[Tic][Pro(3ξ,4ξ-(CH2)4)]K[Tic][Pro(3ξ,4ξ-(CH2)4)]F[Tic][Pro(3ξ,4ξ-(CH2)4)]K[Tic][Pro(3ξ,4ξ-(CH2)4)]F[Tic][Pro(3ξ,4ξ-(CH2)4)]K[Tic][Pro(3ξ,4ξ-(CH2)4)]KR-NH2) | 25 (≈ 8.11 µM) | 12.5 (≈ 4.05 µM) | > 100 | > 100 | > 100 | > 100 | > 100 | > 100 | > 100 | 100 (≈ 32.4 µM) | 50 (≈ 16.2 µM) | 50 (≈ 16.2 µM)
CC(=O)NCCCC(=O)N[C@@H](Cc1ccccc1)C(=O)N1Cc2ccccc2C[C@H]1C(=O)N1CC2CCCCC2[C@H]1C(=O)NCCCC(=O)N[C@@H](CCCCN)C(=O)N1Cc2ccccc2C[C@H]1C(=O)N1CC2CCCCC2[C@H]1C(=O)NCCCC(=O)N[C@@H](Cc1ccccc1)C(=O)N1Cc2ccccc2C[C@H]1C(=O)N1CC2CCCCC2[C@H]1C(=O)NCCCC(=O)N[C@@H](CCCCN)C(=O)N1Cc2ccccc2C[C@H]1C(=O)N[C@@H](CCCCN)C(=O)N[C@@H](CCCCN)C(=O)N[C@@H](CCCCN)C(=O)N[C@@H](CCCCN)C(=O)N[C@@H](CCCCN)C(N)=O (stereo not given in full) (Ac-[GABA]F[Tic][Pro(3ξ,4ξ-(CH2)4)][GABA]K[Tic][Pro(3ξ,4ξ-(CH2)4)][GABA]F[Tic][Pro(3ξ,4ξ-(CH2)4)][GABA]K[Tic]KKKKK-NH2) |  |  | > 100 | > 100 | > 100 | > 100 | > 100 | > 100 |  |  | > 100 | > 100
CC(=O)NCCC(=O)N[C@@H](Cc1ccc(F)cc1)C(=O)N1Cc2ccccc2C[C@H]1C(=O)N1CC2CCCCC2[C@H]1C(=O)NCCC(=O)N[C@@H](CCCCN)C(=O)N1Cc2ccccc2C[C@H]1C(=O)N1CC2CCCCC2[C@H]1C(=O)NCCC(=O)N[C@@H](Cc1ccc(F)cc1)C(=O)N1Cc2ccccc2C[C@H]1C(=O)N1CC2CCCCC2[C@H]1C(=O)NCCC(=O)N[C@@H](CCCCN)C(=O)N1Cc2ccccc2C[C@H]1C(=O)N[C@@H](CN)C(=O)N[C@@H](CN)C(=O)N[C@@H](CN)C(=O)N[C@@H](CN)C(=O)NC(C)=O (stereo not given in full) (Ac-[βAla][Phe(4-F)][Tic][Pro(3ξ,4ξ-(CH2)4)][βAla]K[Tic][Pro(3ξ,4ξ-(CH2)4)][βAla][Phe(4-F)][Tic][Pro(3ξ,4ξ-(CH2)4)][βAla]K[Tic][Dap][Dap][Dap]-X1) |  |  | > 100 | > 100 | > 100 | 50 (≈ 20.8 µM) | 100 (≈ 41.5 µM) | 50 (≈ 20.8 µM) | 12.5 (≈ 5.19 µM) | 12.5 (≈ 5.19 µM) | > 100 | 100 (≈ 41.5 µM)
